According to PubChem BioAssay AID2060619 (Molecular Pharmacology Branch, DTP, NCI, 2025):

Tested on: 323965-272-R-J2-PDC complex spheroid viability
Test: Anticancer human tumor 323965-272-R-J2-PDC patient-derived pancreatic carcinoma cell line growth inhibition [CLK]
Details: for IC50: curve of first compound; for viability, T/C: stronger effect = lower value
Outline: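 Multi-cell-type spheroids combined patient-derived tumor cells with HUVEC endothelial cells and human mesenchymal stem cells. Paired agents were dosed in half-log steps down from about clinical Cmax, or from 10 microM where Cmax was unknown.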

[1] = second compound 0.0316 µM, first compound 0.0316 µM
[2] = second compound 0.0316 µM, first compound 0.1 µM
[3] = second compound 0.0316 µM, first compound 0.316 µM
[4] = second compound 0.0316 µM, first compound 1 µM
[5] = second compound 0.1 µM, first compound 0.0316 µM
[6] = second compound 0.1 µM, first compound 0.1 µM
[7] = second compound 0.1 µM, first compound 0.316 µM
[8] = second compound 0.1 µM, first compound 1 µM
[9] = second compound 0.316 µM, first compound 0.0316 µM
[10] = second compound 0.316 µM, first compound 0.1 µM
[11] = second compound 0.316 µM, first compound 0.316 µM
[12] = second compound 0.316 µM, first compound 1 µM
[13] = second compound 1 µM, first compound 0.0316 µM
[14] = second compound 1 µM, first compound 0.1 µM
[15] = second compound 1 µM, first compound 0.316 µM
[16] = second compound 1 µM, first compound 1 µM
[17] = second compound 3.16 µM, first compound 0.0316 µM
[18] = second compound 3.16 µM, first compound 0.1 µM
[19] = second compound 3.16 µM, first compound 0.316 µM
[20] = second compound 3.16 µM, first compound 1 µM
[21] = second compound 10 µM, first compound 0.0316 µM
[22] = second compound 10 µM, first compound 0.1 µM
[23] = second compound 10 µM, first compound 0.316 µM
[24] = second compound 10 µM, first compound 1 µM
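Further: spheroids exposed to agents for seven days before readout.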
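Wherever viability, T/C is given: percent of DMSO vehicle control wells so 100% = untreated growth.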

## C=CC(=O)Nc1cc(Nc2nccc(-c3cn(C)c4ccccc34)n2)c(OC)cc1N(C)CCN(C)C + CNC(=O)c1ccc(Nc2nc(OC3CCCC3)c3c(-c4ccc5nc(C)oc5c4)c[nH]c3n2)c(OC)c1
Second compound 0.0316 µM
  IC50: > 300 nM
Second compound 0.1 µM
  IC50: 171 nM
Second compound 0.316 µM
  IC50: 10.9 nM
Second compound 1 µM
  IC50: < 0.949 nM
Second compound 3.16 µM
  IC50: < 0.949 nM
Second compound 10 µM
  IC50: < 0.949 nM
Second compound 0.0316 µM, first compound 0.000949 µM
  viability, T/C: 101%
Second compound 0.0316 µM, first compound 0.003 µM
  viability, T/C: 110%
Second compound 0.0316 µM, first compound 0.00949 µM
  viability, T/C: 86%
Second compound 0.0316 µM, first compound 0.03 µM
  viability, T/C: 85.1%
Second compound 0.0316 µM, first compound 0.0949 µM
  viability, T/C: 81.9%
Second compound 0.0316 µM, first compound 0.3 µM
  viability, T/C: 83.5%
Second compound 0.1 µM, first compound 0.000949 µM
  viability, T/C: 70.8%
Second compound 0.1 µM, first compound 0.003 µM
  viability, T/C: 71.8%
Second compound 0.1 µM, first compound 0.00949 µM
  viability, T/C: 62.8%
Second compound 0.1 µM, first compound 0.03 µM
  viability, T/C: 60.1%
Second compound 0.1 µM, first compound 0.0949 µM
  viability, T/C: 57.1%
Second compound 0.1 µM, first compound 0.3 µM
  viability, T/C: 44.8%
Second compound 0.316 µM, first compound 0.000949 µM
  viability, T/C: 54.5%
Second compound 0.316 µM, first compound 0.003 µM
  viability, T/C: 55.5%
Second compound 0.316 µM, first compound 0.00949 µM
  viability, T/C: 46.9%
Second compound 0.316 µM, first compound 0.03 µM
  viability, T/C: 48%
Second compound 0.316 µM, first compound 0.0949 µM
  viability, T/C: 40.5%
Second compound 0.316 µM, first compound 0.3 µM
  viability, T/C: 31.6%
Second compound 1 µM, first compound 0.000949 µM
  viability, T/C: 41.9%
Second compound 1 µM, first compound 0.003 µM
  viability, T/C: 39%
Second compound 1 µM, first compound 0.00949 µM
  viability, T/C: 40.7%
Second compound 1 µM, first compound 0.03 µM
  viability, T/C: 34.4%
Second compound 1 µM, first compound 0.0949 µM
  viability, T/C: 34.2%
Second compound 1 µM, first compound 0.3 µM
  viability, T/C: 26.8%
Second compound 3.16 µM, first compound 0.000949 µM
  viability, T/C: 36.6%
Second compound 3.16 µM, first compound 0.003 µM
  viability, T/C: 43.6%
Second compound 3.16 µM, first compound 0.00949 µM
  viability, T/C: 37.6%
Second compound 3.16 µM, first compound 0.03 µM
  viability, T/C: 34.6%
Second compound 3.16 µM, first compound 0.0949 µM
  viability, T/C: 28.5%
Second compound 3.16 µM, first compound 0.3 µM
  viability, T/C: 29%
Second compound 10 µM, first compound 0.000949 µM
  viability, T/C: 45.3%
Second compound 10 µM, first compound 0.003 µM
  viability, T/C: 39.3%
Second compound 10 µM, first compound 0.00949 µM
  viability, T/C: 38.8%
Second compound 10 µM, first compound 0.03 µM
  viability, T/C: 31.4%
Second compound 10 µM, first compound 0.0949 µM
  viability, T/C: 32.8%
Second compound 10 µM, first compound 0.3 µM
  viability, T/C: 27.7%

## CCc1c2c(nc3ccc(O)cc13)-c1cc3c(c(=O)n1C2)COC(=O)[C@]3(O)CC + CN1CCN(c2cc(C(=O)Nc3cc4cc(-c5cnn(C)c5)ccc4cn3)ccn2)CC1
Second compound 0.0316 µM
  IC50: 7.63 nM
Second compound 0.1 µM
  IC50: < 3.16 nM
Second compound 0.316 µM
  IC50: < 3.16 nM
Second compound 1 µM
  IC50: < 3.16 nM
Second compound 3.16 µM
  IC50: < 3.16 nM
Second compound 10 µM
  IC50: < 3.16 nM
Second compound 0.0316 µM, first compound 0.00316 µM
  viability, T/C: 77.2%
Second compound 0.0316 µM, first compound 0.01 µM
  viability, T/C: 41.7%
[1]
  viability, T/C: 28.6%
[2]
  viability, T/C: 27.2%
[3]
  viability, T/C: 25.7%
[4]
  viability, T/C: 24.1%
Second compound 0.1 µM, first compound 0.00316 µM
  viability, T/C: 42.6%
Second compound 0.1 µM, first compound 0.01 µM
  viability, T/C: 33.3%
[5]
  viability, T/C: 26%
[6]
  viability, T/C: 24.7%
[7]
  viability, T/C: 20.1%
[8]
  viability, T/C: 19.7%
Second compound 0.316 µM, first compound 0.00316 µM
  viability, T/C: 22.2%
Second compound 0.316 µM, first compound 0.01 µM
  viability, T/C: 23.1%
[9]
  viability, T/C: 18.6%
[10]
  viability, T/C: 20.3%
[11]
  viability, T/C: 19.1%
[12]
  viability, T/C: 6.86%
Second compound 1 µM, first compound 0.00316 µM
  viability, T/C: 3.79%
Second compound 1 µM, first compound 0.01 µM
  viability, T/C: 3.36%
[13]
  viability, T/C: 2.56%
[14]
  viability, T/C: 2.23%
[15]
  viability, T/C: 1.14%
[16]
  viability, T/C: 0.61%
Second compound 3.16 µM, first compound 0.00316 µM
  viability, T/C: 4.21%
Second compound 3.16 µM, first compound 0.01 µM
  viability, T/C: 3.48%
[17]
  viability, T/C: 3.05%
[18]
  viability, T/C: 1.79%
[19]
  viability, T/C: 1.1%
[20]
  viability, T/C: 0.61%
Second compound 10 µM, first compound 0.00316 µM
  viability, T/C: 4.27%
Second compound 10 µM, first compound 0.01 µM
  viability, T/C: 6.63%
[21]
  viability, T/C: 2.33%
[22]
  viability, T/C: 1.69%
[23]
  viability, T/C: 0.96%
[24]
  viability, T/C: 0.59%

## COc1cccc2c1C(=O)c1c(O)c3c(c(O)c1C2=O)CC(O)(C(=O)CO)CC3OC1CC(N)C(O)C(C)O1 (stereo unspecified) + CNC(=O)c1ccc(Nc2nc(OC3CCCC3)c3c(-c4ccc5nc(C)oc5c4)c[nH]c3n2)c(OC)c1
Second compound 0.0316 µM
  IC50: 104 nM
Second compound 0.1 µM
  IC50: 135 nM
Second compound 0.316 µM
  IC50: < 31.6 nM
Second compound 1 µM
  IC50: < 31.6 nM
Second compound 3.16 µM
  IC50: < 31.6 nM
Second compound 10 µM
  IC50: < 31.6 nM
[1]
  viability, T/C: 69.4%
[2]
  viability, T/C: 38.1%
[3]
  viability, T/C: 41.5%
[4]
  viability, T/C: 28.1%
Second compound 0.0316 µM, first compound 3.16 µM
  viability, T/C: 19.5%
Second compound 0.0316 µM, first compound 10 µM
  viability, T/C: 0.64%
[5]
  viability, T/C: 73.2%
[6]
  viability, T/C: 44.8%
[7]
  viability, T/C: 39.6%
[8]
  viability, T/C: 28%
Second compound 0.1 µM, first compound 3.16 µM
  viability, T/C: 19.7%
Second compound 0.1 µM, first compound 10 µM
  viability, T/C: 0.62%
[9]
  viability, T/C: 48%
[10]
  viability, T/C: 44.1%
[11]
  viability, T/C: 29.9%
[12]
  viability, T/C: 22.7%
Second compound 0.316 µM, first compound 3.16 µM
  viability, T/C: 13.4%
Second compound 0.316 µM, first compound 10 µM
  viability, T/C: 0.67%
[13]
  viability, T/C: 40.8%
[14]
  viability, T/C: 30%
[15]
  viability, T/C: 22.7%
[16]
  viability, T/C: 17.4%
Second compound 1 µM, first compound 3.16 µM
  viability, T/C: 9.89%
Second compound 1 µM, first compound 10 µM
  viability, T/C: 0.56%
[17]
  viability, T/C: 30.6%
[18]
  viability, T/C: 30.9%
[19]
  viability, T/C: 20.8%
[20]
  viability, T/C: 13.7%
Second compound 3.16 µM, first compound 3.16 µM
  viability, T/C: 7.23%
Second compound 3.16 µM, first compound 10 µM
  viability, T/C: 0.56%
[21]
  viability, T/C: 37.2%
[22]
  viability, T/C: 25.6%
[23]
  viability, T/C: 24.2%
[24]
  viability, T/C: 15.4%
Second compound 10 µM, first compound 3.16 µM
  viability, T/C: 6.06%
Second compound 10 µM, first compound 10 µM
  viability, T/C: 0.58%
